Values of other authors as cited in patent US20240307364A1, “GAS TRANSMISSION EMULSION FOR INTRAVENOUS ADMINISTRATION” (priority 2021, published 2024).
Where two headings read alike, the source gives them in different places. Values belong to the compound of their own block, whether it stands above or below them.

Key:
[1] = 37° C.
[2] = measure of relative solubility of PFOC in lipids
[3] = toxic or locally irritating properties of the detected impurity

Compound: FC(F)(F)C(F)(F)C(F)(F)N1C(F)(F)C(F)(F)C(F)(F)C(F)(F)C1(F)C(F)(F)F (stereo not drawn) [Perfluoro-1-propyl-2 methylpiperidine]
P, vapor tension [1]: 19 mm Hg | t1/2, elimination half-life (elimination from an organism): 24 days | Grade of clearance rate (in vivo): Fast | TcrH (temperature at which equal volumes of PFOC and hexane are mixed together) [2]: 35 °C

Compound: Perfluorodimethyladamantane [Perfluorodimethyladamantane (PFDMA)]
Grade of clearance rate (in vivo): Fast | t1/2, elimination half-life (in vivo): 10 to 20 days | TcrH (temperature at which equal volumes of PFOC and hexane are mixed together) [2]: 32 °C

Compound: FC(F)(F)N1C(F)(F)C(F)(F)C(F)(C2(F)C(F)(F)C(F)(F)C(F)(F)C(F)(F)C2(F)F)C(F)(F)C1(F)F [Perfluoromethylcyclohexylpiperidine]
t1/2, elimination half-life (elimination from an organism): 90 days | Grade of clearance rate (in vivo): Slow

Compound: FC1(F)C(F)(F)C2(F)C(F)(F)C(F)(F)C(F)(F)C3(F)C(F)(F)C(F)(F)C(F)(C1(F)F)C23F (stereo not drawn) [Perfluorodecahydroacenaphthene]
P, vapor tension [1]: 2 mm Hg | t1/2, elimination half-life (elimination from an organism): 7 days | Grade of clearance rate (in vivo): Fast | TcrH (temperature at which equal volumes of PFOC and hexane are mixed together) [2]: 24 °C

Compound: CN(C)C(=S)N(C)C [thiourea, tetramethyl-]
Toxicity, yes/no [3]: yes

Compound: FC(F)(F)C(F)(F)C(F)(F)C(F)(F)N(C(F)(F)C(F)(F)C(F)(F)C(F)(F)F)C(F)(F)C(F)(F)C(F)(F)C(F)(F)F [Perfluorotributylamine (PFTBA), Perfluorotributylamine]
P, vapor tension [1]: 1 mm Hg | t1/2, elimination half-life (elimination from an organism): 400 to 900 days | Grade of clearance rate (in vivo): Slow | TcrH (temperature at which equal volumes of PFOC and hexane are mixed together) [2]: 61 °C

Compound: c1ccc2ccccc2c1 [naphthalene]
Toxicity, yes/no [3]: yes

P, vapor tension [1]: 12 mm Hg | Grade of clearance rate (in vivo): Fast | TcrH (temperature at which equal volumes of PFOC and hexane are mixed together) [2]: 22 °C
Compound: FC1(F)C(F)(F)C(F)(F)C2(F)C(F)(F)C(F)(F)C(F)(F)C(F)(F)C2(F)C1(F)F (stereo not drawn) [Perfluorodecalin (PFD), Perfluorodecalin]

Compound: CCCCCO (single isomer, unassigned) [pentanol]
Toxicity, yes/no [3]: yes

Compound: FC1(F)C(F)(F)C(F)(F)C(F)(F)C(F)(F)C1(F)F (single isomer, unassigned) [cyclohexane, dodecafluoro-]
Toxicity, yes/no [3]: yes

Compound: FC(F)(F)C1(F)C(F)(F)C(F)(F)C(F)(F)C(F)(F)C1(F)F (single isomer, unassigned) [perfluoro(methylcyclohexane)]
Toxicity, yes/no [3]: no

Compound: CC1C=CCC(C)(C)C1 (stereo not drawn) [cyclohexene, 3,5,5-trimethyl-]
Toxicity, yes/no [3]: yes

P, vapor tension [1]: 17 mm Hg | t1/2, elimination half-life (elimination from an organism): 65 days | Grade of clearance rate (in vivo): Slow | TcrH (temperature at which equal volumes of PFOC and hexane are mixed together) [2]: 43 °C
Compound: FC(F)(F)C(F)(F)C(F)(F)N(C(F)(F)C(F)(F)C(F)(F)F)C(F)(F)C(F)(F)C(F)(F)F [Perfluorotripropylamine (PFTPA), Perfluorotripropylamine]

Compound: FC1(F)C(F)(F)C(F)(F)C2(F)C(F)(F)C(F)(F)C(F)(F)C2(F)C1(F)F (stereo not drawn) [Perfluorobicyclo[4.3.0]nonane]
P, vapor tension [1]: 33 mm Hg | t1/2, elimination half-life (elimination from an organism): 4 days | Grade of clearance rate (in vivo): Fast | TcrH (temperature at which equal volumes of PFOC and hexane are mixed together) [2]: 13 °C

Compound: CCOC(C)c1ccccc1 (single isomer, unassigned) [benzene, (1-ethoxyethyl)-]
Toxicity, yes/no [3]: yes

Compound: CO/C(=N\O)c1ccccc1 [oxime-, methoxy-phenyl-]
Toxicity, yes/no [3]: yes

Compound: OCc1ccco1 (single isomer, unassigned) [furfurol]
Toxicity, yes/no [3]: yes

Compound: Perfluorodihexyl ether
P, vapor tension [1]: 2 mm Hg | t1/2, elimination half-life (elimination from an organism): 500 days | Grade of clearance rate (in vivo): Slow | TcrH (temperature at which equal volumes of PFOC and hexane are mixed together) [2]: 59 °C

P, vapor tension [1]: 10.5 mm Hg | Grade of clearance rate (in vivo): Fast | TcrH (temperature at which equal volumes of PFOC and hexane are mixed together) [2]: −20 °C
Compound: FC(F)(F)C(F)(F)C(F)(F)C(F)(F)C(F)(F)C(F)(F)C(F)(F)C(F)(F)Br [Perfluorooctyl bromide (PFOB), Perfluorooctyl bromide]

Compound: Cc1cc(Cc2cc(C)cc(C(C)(C)C)c2O)c(O)c(C(C)(C)C)c1 [phenol, 2,2′-methylenebis[6-(1,1-dimethylethyl)-4-methyl-]
Toxicity, yes/no [3]: yes

Compound: COC(=O)c1ccccc1C(=O)OC [dimethyl phthalate]
Toxicity, yes/no [3]: no

Compound: O-ethyl-methoxy-phenyl-oxime
Toxicity, yes/no [3]: yes

Compound: Cc1cc(O)n(Cc2ccccc2)c(=O)c1C#N [1-benzyl-6-hydroxy-4-methyl-2(1H)-oxo-3-pyridinecarbonitrile]
Toxicity, yes/no [3]: yes

Compound: OCC(O)CO [glycerol]
Toxicity, yes/no [3]: no

Compound: CC1=NN(c2ccccc2)C(=O)C1 [3H-pyrazol-3-one, 2,4-dihydro-5-methyl-2-phenyl-]
Toxicity, yes/no [3]: yes

Compound: CCOC(=O)c1ccccc1 [benzoic acid ethyl ester]
Toxicity, yes/no [3]: yes

Compound: CC(C)COC(=O)c1ccccc1C(=O)OCC(C)C [diisobutyl phthalate]
Toxicity, yes/no [3]: yes

Compound: Fc1ccc2ccccc2c1 [naphthalene, 2-fluoro-]
Toxicity, yes/no [3]: yes

Compound: FC(F)(F)N(C(F)(F)C(F)(F)C(F)(F)C(F)(F)F)C1(F)C(F)(F)C(F)(F)C(F)(C(F)(F)F)C(F)(F)C1(F)F (stereo not drawn) [perfluoromethylbutyl(4-methylcyclohexyl)amine]
Toxicity, yes/no [3]: no
